Results from article PMC11568214, “The impact of 9-azaglycophymine and phenylguanidine derivatives on the proliferation of various breast cancer cell lines in vitro and in vivo” (Scientific Reports, 2024).

How the values were obtained:
HCC1937 = assay: Apoptosis analysis, AnnV/PI staining, flow cytometry; type: cell-based, human; conditions: HCC1937, IC50 for 72 h; control cells 19%
Description: (§1) Cells were seeded in 6-well plates and incubated for 24 h under standard culture conditions. […] For apoptosis analyses, the cell suspension was centrifuged for 3 min at 800 rpm, and the cell pellet was stained by using 100 µL of AnnV/PI working solution (5 µL of AnnV, 2 µL of PI in 100 µL of PBS) for 15 min at RT and protected from light. The staining was terminated by the addition of 900 µL of annexin binding buffer. Finally, all samples were analyzed by using flow cytometry (FACSAria III, BD Biosciences, New Jersey, USA).

MDA-MB-468 [1] = assay: as above; type: cell-based, human; conditions: MDA-MB-468, IC50 for 72 h
Description: as §1

MCF-7 = assay: as above; type: cell-based, human; conditions: MCF-7, IC50 for 72 h
Description: as §1

BT-474 = assay: as above; type: cell-based, human; conditions: BT-474, IC50 for 72 h; control cells 20%
Description: as §1

MDA-MB-468 [2] = assay: Crystal violet (CV) cell viability assay, IC50 determination; type: cell-based, human
Description: For initial testing of the cytotoxic effect of the available glycophymine compounds (Table S2), cells were treated with compound in three concentrations: 1, 10 and 50 µM. Cells were seeded in 96-well plates and allowed to adhere overnight. Then they were treated for 72 h under standard culture conditions. […] For IC50 determination, the compounds were tested at seven concentrations (0.78, 1.56, 3.13, 6.25, 12.5, 25 and 50 µM). Subsequently, the cell viability was determined by using the crystal violet (CV) assay. Moreover, the selected compounds were tested against the mouse breast cancer cell line 4T1 (TNBC) as well. The compounds were prepared initially to obtain a stock solution of 20 mM in DMSO. Later, the working solutions were prepared by mixing the required amount of DMSO stock with the optimal medium for each cell line. The DMSO concentration in the final solution was always maintained lower than 0.5% to avoid any DMSO-derived side effects.
For CV assays, after 72 h treatment, the treatment medium was discarded from the 96-well plates, and the cells were washed using 50 µL of PBS. Cells were fixed by adding 50 µL of 4% (v/v) paraformaldehyde (PFA) in PBS for 15 min at room temperature (RT). Afterwards, PFA was discarded, and the plates were dried for 15 min at RT. 50 µL of CV working solution (0.1% w/v CV in PBS) were added to the wells, followed by 15 min incubation at RT. Subsequently, the CV solution was discarded, and the plates were washed using aqua bidest. (ddH2O) to remove any remaining CV solution. The plates were left to dry overnight at RT, and then 50 µL of 33% (v/v) acetic acid in ddH2O were added to each well. Finally, the absorbance was measured at 570 nm by using a SpectraMax M5 plate reader (Molecular Devices, California, USA) and at 670 nm as background wavelength. […] Additionally, gefitinib, an approved EGFR inhibitor of the quinazoline family, was tested as anti-proliferative positive control. The data represent the mean ± standard deviation derived from three independent biological replicates. Dose–response curves were generated by four-parametric non-linear regression analysis using the GraphPad Prism software (version: 10.1, San Diego, CA, USA). Based on that, IC50 values and standard deviations were calculated for each replicate individually.

[3] = Monitoring of systemic toxicity in the 4T1 in vivo study (body mass, behavior, fur, food intake); parameters: species or system BALB/c mice; conditions: 5 and 20 mg/kg i.p.
Description: On day 6, the mice were assigned to the study groups using a stratified randomization approach, ensuring that the mean tumor volumes were as similar as possible across all groups. The control group was treated with 400 µL of vehicle solution, the low dose compound 19 group with 5 mg/kg in 400 µL of vehicle, and the high dose group with […] in 400 µL of vehicle. The vehicle was 4% (v/v) DMSO in PBS, and the administration route was intraperitoneal (i.p.). The animals were treated daily on days 6–10 (starting from the day when tumors became palpable), 13–17 and day 20. Animals were visually examined daily, and urine samples were collected on the first and last day of treatment and analyzed by Multistix urine test stripes (Siemens Healthineers, Erlangen, Germany). On day 21 of the experiment, the mice were sacrificed using cervical dislocation. Following the sacrifice, the tumor diameters were measured using a caliper. The tumor volume (V) was then calculated using the formula V = L*W^2*0.52[36], where L represents the longest diameter and W the shortest diameter of the tumor.

4T1 [4] = assay: Autophagy induction, acridine orange staining, flow cytometry; type: cell-based, mouse; parameters: key: ↑: induction; ↓: inhibition; ↔: no effect; conditions: 4T1, IC50 for 72 h
Description: Cells were seeded in 6-well plates and incubated for 24 h under standard culture conditions. […] For the analyses of autophagy induction, the cell suspension was centrifuged for 3 min at 800 rpm, and the cell pellet was stained with 1 mL of AO working solution (1 µg/mL of AO in growth medium). Cells were incubated for 15 min under standard culture conditions. The cell suspension was centrifuged for 3 min at 800 rpm, and the cell pellet was washed with 1 mL of fresh PBS. Finally, all samples were analyzed by using flow cytometry (FACSAria III, BD Biosciences, New Jersey, USA).

4T1 [5] = assay: Cell division analysis, CFSE staining, flow cytometry; type: cell-based, mouse; parameters: key: ↑: induction; ↓: inhibition; ↔: no effect; conditions: 4T1, IC50 for 72 h
Description: (§2) The cells were stained with CFSE (1 µM) in PBS containing 0.1% (v/v) FCS for 10 min. Afterwards, cells were washed with PBS, and then seeded with growth medium in 6-well plates. The plates were incubated for 24 h under standard culture conditions. […] Subsequently, the cells were detached using 0.5 mL of 0.05% (v/v) Trypsin–EDTA for 3 min at 37 °C. Then trypsin was deactivated by the addition of FCS-containing growth medium. The cell suspensions were collected, centrifuged for 3 min at 800 rpm, and the cell pellets were resuspended in fresh PBS. Finally, the samples were analyzed by using flow cytometry.

4T1 [6] = assay: ROS production, DHR staining, flow cytometry; type: cell-based, mouse; parameters: key: ↑: induction; ↓: inhibition; ↔: no effect; conditions: 4T1, IC50 for 72 h
Description: as §2, with “cytometry. For ROS production analyses, the procedure was performed exactly as described above for the cell division experiments, except that the CFSE staining solution was replaced by DHR staining solution resulting in 1 µM of DHR in PBS containing 0.1% (v/v) FCS[34],[35].” for “cytometry.”

O=c1[nH]c(Nc2ccc([N+](=O)[O-])cc2)nc2ccccc12 [Compound 19, 4′-nitro-9-aza-glycophymine]
percentage of apoptotic cells (HCC1937): 47%
induction of apoptotic cell death (MDA-MB-468 [1]): did neither activate caspases nor apoptotic cell death
induction of apoptotic cell death (MCF-7): did neither activate caspases nor apoptotic cell death
percentage of apoptotic cells (BT-474): 51%
toxicity against MDA-MB-468 in comparison to gefitinib (MDA-MB-468 [2]; 72 h, Fig. S12): nearly three times higher toxicity
IC50 (MDA-MB-468 [2]; Homo sapiens, MDA-MB-468, 72 h treatment, mean ± SD): 5.8 ± 0.3 µM
acute systemic toxicity (body mass, behavioral changes, fur color and loss, food intake) [3]: absence of acute systemic toxicity
Autophagy (4T1 [4]): ↔
Proliferation (4T1 [5]): ↓
ROS (4T1 [6]): ↔
